Experimental findings from patent US20220389007A1, “INHIBITORS OF HUMAN IMMUNODEFICIENCY VIRUS REPLICATION” (VIIV HEALTHCARE UK (No. 5) LIMITED, priority 2019, published 2022) are described below.

Molecules are shown by their SMILES.

For one series, the system named is recombinant NL4-3 virus. Description: HIV cell culture assay (antiviral activity, luciferase readout). As to conditions: Human immunodeficiency virus 1, NL43, MT2, MT-2 cells infected for 4-5 days with recombinant NL4-3 virus carrying Renilla luciferase. The format is cell-based. An outline of the steps: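 MT-2 cells infected for 4-5 days with NL4-3 reference virus carrying Renilla luciferase in place of part of nef, in presence of serial compound dilutions. Luciferase read with live-cell substrate; EC50 from median effect equation fit.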

The nature of series [1]: Compound cytotoxicity, XTT-based colorimetric assay. As to conditions: human; uninfected MT2 cells, day 4, XTT assay. The format is cell-based. An outline of the steps:
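Run under the antiviral-assay protocol but without virus. Viability was read on day 4 and CC50 values were derived from the readout.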
A general note: Tetrazolium dyes change colour on reduction, which living cells bring about.

Take `CCC(F)(F)Cn1ccc(-c2ccc3c(=O)n(-c4ccc(Cl)c5c(NS(C)(=O)=O)nn(C)c45)c([C@H](Cc4cc(F)cc(F)c4)NC(=O)Cn4nc(C(F)F)c5c4C(F)(F)[C@@H]4C[C@H]54)nc3n2)n1` (atropisomer, axis not shown; (P)) [Example 86, N-((S)-1-((3P)-3-(4-chloro-1-methyl-3-(methylsulfonamido)-1H-indazol-7-yl)-7-(1-(2,2-difluorobutyl)-1H-pyrazol-3-yl)-4-oxo-3,4-dihydropyrido[2,3-d]pyrimidin-2-yl)-2-(3,5-difluorophenyl)ethyl)-2-((3bS,4aR)-3-(difluoromethyl)-5,5-difluoro-3b,4,4a,5-tetrahydro-1H-cyclopropa[3,4]cyclopenta[1,2-c]pyrazol-1-yl)acetamide]: the EC50 with recombinant NL4-3 virus was 0.084 nM. In series [1], this compound registered a CC50 at 4 day of over 100 nM.

In the case of `Cn1nc(NS(C)(=O)=O)c2c(Cl)ccc(-n3c([C@H](Cc4cc(F)cc(F)c4)NC(=O)Cn4nc(C(F)F)c5c4C(F)(F)[C@@H]4C[C@H]54)nc4nc(-c5ncc(Cl)nc5Cl)ccc4c3=O)c21` (atropisomer, axis not shown; (P)) [Example 57, N-((S)-1-((3P)-3-(4-chloro-1-methyl-3-(methylsulfonamido)-1H-indazol-7-yl)-7-(3,5-dichloropyrazin-2-yl)-4-oxo-3,4-dihydropyrido[2,3-d]pyrimidin-2-yl)-2-(3,5-difluorophenyl)ethyl)-2-((3bS,4aR)-3-(difluoromethyl)-5,5-difluoro-3b,4,4a,5-tetrahydro-1H-cyclopropa[3,4]cyclopenta[1,2-c]pyrazol-1-yl)acetamide], the EC50 with recombinant NL4-3 virus worked out at 0.073 nM. For the same compound, the 50% cytotoxic concentration (CC50) at 4 day in series [1] is over 100 nM.

As for `Cc1cc(-c2ccc3c(=O)n(-c4ccc(Cl)c5c(NS(C)(=O)=O)nn(C)c45)c([C@H](Cc4cc(F)cc(F)c4)NC(=O)Cn4nc(C(F)F)c5c4C(F)(F)[C@@H]4C[C@H]54)nc3n2)nc(C(F)(F)F)n1` (atropisomer, axis not shown; (P)) [Example 18, N-((S)-1-((3P)-3-(4-chloro-1-methyl-3-(methylsulfonamido)-1H-indazol-7-yl)-7-(6-methyl-2-(trifluoromethyl)pyrimidin-4-yl)-4-oxo-3,4-dihydropyrido[2,3-d]pyrimidin-2-yl)-2-(3,5-difluorophenyl)ethyl)-2-((3bS,4aR)-3-(difluoromethyl)-5,5-difluoro-3 b,4,4a,5-tetrahydro-1H-cyclopropa[3,4]cyclopenta[1,2-c]pyrazol-1-yl)acetamide], the concentration giving a half-maximal response (EC50) with recombinant NL4-3 virus stood at 0.068 nM. The compound also displayed a 50% cytotoxic concentration (CC50) at 4 day in series [1] of over 100 nM.

As for `Cn1nc(NS(C)(=O)=O)c2c(Cl)ccc(-n3c([C@H](Cc4cc(F)cc(F)c4)NC(=O)Cn4nc(C(F)F)c5c4C(F)(F)[C@@H]4C[C@H]54)nc4nc(-c5ccccn5)ccc4c3=O)c21` (atropisomer, axis not shown; (P)) [Example 60, N-((S)-1-((3P)-3-(4-chloro-1-methyl-3-(methylsulfonamido)-1H-indazol-7-yl)-4-oxo-7-(pyridin-2-yl)-3,4-dihydropyrido[2,3-d]pyrimidin-2-yl)-2-(3,5-difluorophenyl)ethyl)-2-((3bS,4aR)-3-(difluoromethyl)-5,5-difluoro-3b,4,4a,5-tetrahydro-1H-cyclopropa[3,4]cyclopenta[1,2-c]pyrazol-1-yl)acetamide], in the series on recombinant NL4-3 virus, the 50% effective concentration (EC50) amounted to 0.032 nM. In addition, in series [1], the CC50 at 4 day was over 100 nM.

Turning to `COc1cncc(-c2ccc3c(=O)n(-c4ccc(Cl)c5c(NS(C)(=O)=O)nn(C)c45)c([C@H](Cc4cc(F)cc(F)c4)NC(=O)Cn4nc(C(F)F)c5c4C(F)(F)[C@@H]4C[C@H]54)nc3n2)c1` (atropisomer, axis not shown; (P)) [Example 51, N-((S)-1-((3P)-3-(4-chloro-1-methyl-3-(methylsulfonamido)-1H-indazol-7-yl)-7-(5-methoxypyridin-3-yl)-4-oxo-3,4-dihydropyrido[2,3-d]pyrimidin-2-yl)-2-(3,5-difluorophenyl)ethyl)-2-((3bS,4aR)-3-(difluoromethyl)-5,5-difluoro-3b,4,4a,5-tetrahydro-1H-cyclopropa[3,4]cyclopenta[1,2-c]pyrazol-1-yl)acetamide], in the series with recombinant NL4-3 virus, the EC50 is 0.085 nM. Also, in series [1], the half-maximal cytotoxic concentration (CC50) at 4 day was over 100 nM.

As to `Cn1nc(NS(C)(=O)=O)c2c(Cl)ccc(-n3c([C@H](Cc4cc(F)cc(F)c4)NC(=O)Cn4nc(C(F)F)c5c4C(F)(F)[C@@H]4C[C@H]54)nc4nc(-c5ccncn5)ccc4c3=O)c21` (atropisomer, axis not shown; (P)) [Example 28, N-((S)-1-((3P)-3-(4-chloro-1-methyl-3-(methylsulfonamido)-1H-indazol-7-yl)-4-oxo-7-(pyrimidin-4-yl)-3,4-dihydropyrido[2,3-d]pyrimidin-2-yl)-2-(3,5-difluorophenyl)ethyl)-2-((3bS,4aR)-3-(difluoromethyl)-5,5-difluoro-3b,4,4a,5-tetrahydro-1H-cyclopropa[3,4]cyclopenta[1,2-c]pyrazol-1-yl)acetamide], in the series with recombinant NL4-3 virus, the EC50 was found to be 0.04 nM. The compound further had a CC50 at 4 day in series [1] of over 100 nM.

Regarding `Cc1cccc(-c2ccc3c(=O)n(-c4ccc(Cl)c5c(NS(C)(=O)=O)nn(C)c45)c([C@H](Cc4cc(F)cc(F)c4)NC(=O)Cn4nc(C(F)F)c5c4C(F)(F)[C@@H]4C[C@H]54)nc3n2)n1` (atropisomer, axis not shown; (P)) [Example 31, N-((S)-1-((3P)-3-(4-chloro-1-methyl-3-(methylsulfonamido)-1H-indazol-7-yl)-7-(6-methylpyridin-2-yl)-4-oxo-3,4-dihydropyrido[2,3-d]pyrimidin-2-yl)-2-(3,5-difluorophenyl)ethyl)-2-((3bS,4aR)-3-(difluoromethyl)-5,5-difluoro-3b,4,4a,5-tetrahydro-1H-cyclopropa[3,4]cyclopenta[1,2-c]pyrazol-1-yl)acetamide], in the series on recombinant NL4-3 virus, the EC50 was 0.031 nM. In series [1], this compound yielded a CC50 at 4 day of over 100 nM.

On to `Cn1nc(NS(C)(=O)=O)c2c(Cl)ccc(-n3c([C@H](Cc4cc(F)cc(F)c4)NC(=O)Cn4nc(C(F)F)c5c4C(F)(F)[C@@H]4C[C@H]54)nc4nc(-n5ccc(C(F)(F)F)n5)ccc4c3=O)c21` (atropisomer, axis not shown; (P)) [Example 65, N-((S)-1-((3P)-3-(4-chloro-1-methyl-3-(methylsulfonamido)-1H-indazol-7-yl)-4-oxo-7-(3-(trifluoromethyl)-1H-pyrazol-1-yl)-3,4-dihydropyrido[2,3-d]pyrimidin-2-yl)-2-(3,5-difluorophenyl)ethyl)-2-((3bS,4aR)-3-(difluoromethyl)-5,5-difluoro-3b,4,4a,5-tetrahydro-1H-cyclopropa[3,4]cyclopenta[1,2-c]pyrazol-1-yl)acetamide], for which the EC50 with recombinant NL4-3 virus was found to be 0.062 nM. The 50% cytotoxic concentration (CC50) at 4 day in series [1] was over 100 nM.

On to `Cn1nc(NS(C)(=O)=O)c2c(Cl)ccc(-n3c([C@H](Cc4cc(F)cc(F)c4)NC(=O)Cn4nc(C(F)F)c5c4C(F)(F)[C@@H]4C[C@H]54)nc4nc(-c5cccc(C(F)F)n5)ccc4c3=O)c21` (atropisomer, axis not shown; (P)) [Example 38, N-((S)-1-((3P)-3-(4-chloro-1-methyl-3-(methylsulfonamido)-1H-indazol-7-yl)-7-(6-(difluoromethyl)pyridin-2-yl)-4-oxo-3,4-dihydropyrido[2,3-d]pyrimidin-2-yl)-2-(3,5-difluorophenyl)ethyl)-2-((3bS,4aR)-3-(difluoromethyl)-5,5-difluoro-3b,4,4a,5-tetrahydro-1H-cyclopropa[3,4]cyclopenta[1,2-c]pyrazol-1-yl)acetamide], for which the EC50 in the series on recombinant NL4-3 virus came out at 0.051 nM. The compound also had a half-maximal cytotoxic concentration (CC50) at 4 day in series [1] of over 100 nM.

Consider `Cn1nc(NS(C)(=O)=O)c2c(Cl)ccc(-n3c([C@H](Cc4cc(F)cc(F)c4)NC(=O)Cn4nc(C(F)F)c5c4C(F)(F)[C@@H]4C[C@H]54)nc4nc(-c5ccc(S(C)(=O)=O)cc5)ccc4c3=O)c21` (atropisomer, axis not shown; (P)) [Example 35, N-((S)-1-((3P)-3-(4-chloro-1-methyl-3-(methylsulfonamido)-1H-indazol-7-yl)-7-(4-(methylsuIfonyl)phenyl)-4-oxo-3,4-dihydropyrido[2,3-d]pyrimidin-2-yl)-2-(3,5-difluorophenyl)ethyl)-2-((3bS,4aR)-3-(difluoromethyl)-5,5-difluoro-3b,4,4a,5-tetrahydro-1H-cyclopropa[3,4]cyclopenta[1,2-c]pyrazol-1-yl)acetamide], for which, in the series with recombinant NL4-3 virus, the EC50 was determined as 0.14 nM. The compound also showed a CC50 at 4 day in series [1] of over 100 nM.

Turning to `Cn1nc(NS(C)(=O)=O)c2c(Cl)ccc(-n3c([C@H](Cc4cc(F)cc(F)c4)NC(=O)Cn4nc(C(F)F)c5c4C(F)(F)[C@@H]4C[C@H]54)nc4nc(-c5csc(C(C)(C)O)n5)ccc4c3=O)c21` (atropisomer, axis not shown; (P)) [Example 91, N-((S)-1-((3P)-3-(4-chloro-1-methyl-3-(methylsulfonamido)-1H-indazol-7-yl)-7-(2-(2-hydroxypropan-2-yl)thiazol-4-yl)-4-oxo-3,4-dihydropyrido[2,3-d]pyrimidin-2-yl)-2-(3,5-difluorophenyl)ethyl)-2-((3bS,4aR)-3-(difluoromethyl)-5,5-difluoro-3b,4,4a,5-tetrahydro-1H-cyclopropa[3,4]cyclopenta[1,2-c]pyrazol-1-yl)acetamide], the EC50 with recombinant NL4-3 virus is 0.037 nM. Moreover, in series [1], the CC50 at 4 day was over 100 nM.

For `Cn1nc(NS(C)(=O)=O)c2c(Cl)ccc(-n3c([C@H](Cc4cc(F)cc(F)c4)NC(=O)Cn4nc(C(F)F)c5c4C(F)(F)[C@@H]4C[C@H]54)nc4nc(-c5ncncc5C(F)(F)F)ccc4c3=O)c21` (atropisomer, axis not shown; (P)) [Example 17, N-((S)-1-((3P)-3-(4-chloro-1-methyl-3-(methylsulfonamido)-1H-indazol-7-yl)-4-oxo-7-(5-(trifluoromethyl)pyrimidin-4-yl)-3,4-dihydropyrido[2,3-d]pyrimidin-2-yl)-2-(3,5-difluorophenyl)ethyl)-2-((3bS,4aR)-3-(difluoromethyl)-5,5-difluoro-3b,4,4a,5-tetrahydro-1H-cyclopropa[3,4]cyclopenta[1,2-c]pyrazol-1-yl)acetamide], in the series on recombinant NL4-3 virus, the EC50 came to 0.038 nM. Also, the 50% cytotoxic concentration (CC50) at 4 day in series [1] is over 100 nM.

Usually EC50 stands for the concentration that produces a half-maximal response. As a reminder, the CC50 is the concentration giving 50% cytotoxicity. Low readings indicate harm at low concentration, high ones better tolerance by the cells.
